Test results taken from US20250375450A1, “SMARCA2/4 INHIBITION AS A STRATEGY TO TREAT TUMORS THAT HARBOR ABERRANT BAF ASSEMBLIES” (BOARD OF REGENTS, THE UNIVERSITY OF TEXAS SYSTEM, priority 2022, published 2025).
Entries after “also recorded” stand apart in the source; their conditions may differ.

Assays:
ovarian cancer cells = assay: Growth/killing of ovarian cancer cells; format: cell-based; conditions: dose-dependent
Procedure: (§1) Proliferation of adherent cells was determined on the IncuCyte live-cell imaging system (Essen BioScience). Cells were seeded on clear bottom 96 well plates at a seeding density of 2000 cells/well. Cells were allowed to attach overnight after which the medium was replaced with fresh medium containing serial dilutions (2×) of the compound or DMSO control. Percent confluence was calculated by the IncuCyte software from four different images per well from at least three replicate wells. For non-adherent cells, the 96-well plates were coated with poly-L-lysine before seeding to facilitate cell adhesion. At the end of the assay, dose-dependent cell viability was determined by staining the cells with PrestoBlue (Invitrogen, A13261) as per manufacturer's instructions and IC50 was calculated (FIG. 10).
Referring to FIG. 10A, AT-301 kills a variety of cancer cells (brain tumors, rhabdomyosarcoma, nonsmall cell lung cancer, leukemia, and Ewing's Sarcoma. We also tested whether AT-301 can kill cells representing gynecological cancers (ovarian and endometrial cancer). As shown in FIG. 10B-C, AT-301 kills a variety of ovarian and endometrial cancer cells.

RH41 cells = assay: Cell cycle analysis, propidium iodide/RNase flow cytometry; format: cell-based; conditions: 7.5 μM AT-301, 24 hours
Procedure: (§2) Referring to FIG. 11A and FIG. 11B, RH4 (FIG. 11A) and ES3 (FIG. 11B) cells were treated with the indicated concentrations of BAF-X-1 or DMSO in triplicate and apoptosis was detected using the IncuCyte Caspase 3/7 green dye (Sartorius). Brightfield and green fluorescence images were captured every 2 hours from 4 fields per well on the IncuCyte live cell imager. The proportion of caspase positive (green) cells relative to % confluence of the well was calculated on the IncuCyte software and plotted against time. Referring to FIG. 11C and FIG. 11D, RH41 cells were treated with 7.5 μM AT-301 (FIG. 11D) or DMSO (FIG. 11C) for 24 hours, harvested with accutase, washed, and fixed in 70% ethanol. They were subsequently stained with propidium iodide/RNase and fluorescence was analyzed on BD flow cytometer. Resulting data was analyzed using FlowJo software.
To test the alterations in cell cycle upon AT-301 treatment, RH41 cells were cultured in 12 well plates, detached using Accutase (Corning, 25-058-Cl), washed with PBS, and fixed in 70% ethanol. For staining, the fixed cells were washed with PBS and stained with FxCycle PI/RNase staining solution (Invitrogen, F10797) as per the supplier's directions. Fluorescence intensity of stained cells was measured on (BD system) and analyzed using FlowJo.

BAF complex in ES3 cells = assay: BAF complex assembly, size-exclusion chromatography of nuclear lysates and immunoblot; format: cell-based; conditions: 7.5 μM AT-301
Excerpt: FIG. 12A-D show representative data illustrating that the assembly of BAF complex is perturbed by AT-301 inhibitor without perturbing oncogenic fusion protein levels. Referring to FIG. 12A and FIG. 12B, immunoblots of RH41 (FIG. 12A) and ES7 (FIG. 12B) cells after 4 and 12 hrs of treatment with AT-301 or DMSO. FOXO1 and FLI1 expression remains unchanged upon AT-301 treatment. Referring to FIG. 12C and FIG. 12D, gel filtration chromatography of ES3 (FIG. 12C) and RH41 (FIG. 12D) cell nuclear lysates after BAF-X-1 treatment are shown. Lysates were passed through a Sephacryl S-400 HR column and every fourth fraction was immuno-blotted for the proteins indicated with fraction numbers above the lanes.
Next, whether AT-301 can perturb the assembly of BAF complex was evaluated using size-exclusion chromatography (SEC) method. Cells were cultured on 15 cm petri-dishes. Nuclei were extracted and lysed. A HiPrep 16/60 Sephacryl S-400 HR column (GE) was equilibrated with a running buffer and 4 mg of the lysate was loaded on to the column. Fractions of 1 mL were eluted at an elution rate of 0.8 mL/min. Eluted proteins were analyzed by concentrating and immunoblotting every fourth fraction.

[1] = system: ES3 (Ewing's sarcoma) cells; assay: Apoptosis, IncuCyte Caspase-3/7 green reagent; format: cell-based
Procedure: as §2
(§3) The medium was then replaced with fresh medium containing dilutions of the compound (AT-301) or DMSO (as a negative control), and 1× IncuCyte Caspase-3/7 green reagent (Sartorius) and proliferation/apoptosis was measured on IncuCyte live-cell imaging system. The treated cells were imaged every (2/4) hours and four fields from each well were imaged for analysis.

[2] = system: RH41 (rhabdomyosarcoma) cells; assay: Apoptosis, IncuCyte Caspase-3/7 green reagent; format: cell-based
Procedure: as §2, §3

H2030 = assay: Cell proliferation assay and IC50 measurement (PrestoBlue); format: cell-based; conditions: Homo sapiens, NCI-H2030, PrestoBlue cell viability
Procedure: (§4) FIG. 10A-C show representative data illustrating that AT-301 kills Ewing's, RMS, GBM, AML, and other cancer cells. Cell lines were treated with serial dilutions (2×) of AT-301, and IC50 values of each cell line were determined using PrestoBlue dye for cell viability following manufacturer's protocol (Invitrogen, A13261). See also Table 3.
(§5) Jurkat, Molt-4, RH4, RH30, BT40, GBM2, ES3, ES6, ES7, HC827, H1975, H2030 cells: RPMI 1640, 10% FBS, Penicillin (100 units/mL) and streptomycin (100 μg/mL) in the presence of 5% CO2.
as §1

ES6 = assay: as above; format: cell-based; conditions: PrestoBlue cell viability
Procedure: as §4, §5, §1

GBM2 = assay: as above; format: cell-based; conditions: PrestoBlue cell viability
Procedure: as §4, §5, §1

HCC827 = assay: as above; format: cell-based; conditions: Homo sapiens, PrestoBlue cell viability
Procedure: as §4, §5, §1

ES7 = assay: as above; format: cell-based; conditions: Homo sapiens, PrestoBlue cell viability
Procedure: as §4, §5, §1

Molt4 = assay: as above; format: cell-based; conditions: Homo sapiens, MOLT-4, PrestoBlue cell viability
Procedure: as §4, §5, §1

RH4 = assay: as above; format: cell-based; conditions: PrestoBlue cell viability
Procedure: as §4, §5, §1

Jurkat = assay: as above; format: cell-based; conditions: Homo sapiens, PrestoBlue cell viability
Procedure: as §4, §5, §1

BT40 = assay: as above; format: cell-based; conditions: PrestoBlue cell viability
Procedure: as §4, §5, §1

H1975 = assay: as above; format: cell-based; conditions: Homo sapiens, NCI-H1975, PrestoBlue cell viability
Procedure: as §4, §5, §1

ES3 = assay: as above; format: cell-based; conditions: PrestoBlue cell viability
Procedure: as §4, §5, §1

RH30 = assay: as above; format: cell-based; conditions: PrestoBlue cell viability
Procedure: as §4, §5, §1

SMARCA2 = target: T1, SMARCA2 (Homo sapiens, UniProt P51531); assay: Secondary ATPase assay; format: biochemical
T1 construct: The SMARCA2-1 gene (amino acids 437-1493) encompassing all domains; made in house; host or cells: expiSF9 insect cells (baculovirus, pFASTBac1)
Procedure: Exemplary compounds were evaluated for their ability to inhibit human SMARCA2 in ATPase assays as detailed in Table 2 below. Dose response curves for compound nos.

T1 sequence (P51531 437-1493): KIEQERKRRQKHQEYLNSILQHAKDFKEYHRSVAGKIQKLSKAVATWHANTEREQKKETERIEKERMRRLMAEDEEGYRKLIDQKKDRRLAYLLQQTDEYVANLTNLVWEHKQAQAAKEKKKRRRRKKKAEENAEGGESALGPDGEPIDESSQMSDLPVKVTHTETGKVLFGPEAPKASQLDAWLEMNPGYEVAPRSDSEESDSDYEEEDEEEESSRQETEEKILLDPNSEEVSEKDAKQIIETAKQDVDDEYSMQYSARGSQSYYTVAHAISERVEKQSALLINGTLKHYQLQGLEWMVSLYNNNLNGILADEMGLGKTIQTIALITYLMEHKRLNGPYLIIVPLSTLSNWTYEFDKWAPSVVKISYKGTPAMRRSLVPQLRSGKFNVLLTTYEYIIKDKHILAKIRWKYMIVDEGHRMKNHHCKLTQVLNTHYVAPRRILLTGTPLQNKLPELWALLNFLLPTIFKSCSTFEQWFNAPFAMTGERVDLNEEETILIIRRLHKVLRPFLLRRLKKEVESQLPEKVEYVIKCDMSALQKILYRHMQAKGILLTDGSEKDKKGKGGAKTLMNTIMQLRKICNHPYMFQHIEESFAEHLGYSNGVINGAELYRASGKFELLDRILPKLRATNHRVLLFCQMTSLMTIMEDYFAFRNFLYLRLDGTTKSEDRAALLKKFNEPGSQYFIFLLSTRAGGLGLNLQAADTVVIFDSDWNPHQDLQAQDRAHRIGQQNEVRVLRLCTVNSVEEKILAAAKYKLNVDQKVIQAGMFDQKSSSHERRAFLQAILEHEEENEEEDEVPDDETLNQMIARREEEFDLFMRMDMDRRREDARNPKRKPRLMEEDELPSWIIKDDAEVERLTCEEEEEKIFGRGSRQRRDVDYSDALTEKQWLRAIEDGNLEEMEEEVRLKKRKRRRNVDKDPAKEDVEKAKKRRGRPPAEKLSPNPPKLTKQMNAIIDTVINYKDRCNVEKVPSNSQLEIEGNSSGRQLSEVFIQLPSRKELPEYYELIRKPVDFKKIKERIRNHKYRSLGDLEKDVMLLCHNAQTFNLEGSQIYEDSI

IC50 (H2030): 6.26 µM
IC50 (HCC827): 5.21 µM
IC50 (Molt4): 4.39 µM
IC50 (Jurkat): 2.81 µM
IC50 (BT40): 3.49 µM
IC50 (H1975): 5.31 µM
IC50 (SMARCA2): ~5 µM
SMILES: Clc1ccc(CNc2nc(NC3CCCC3)nc3ccccc23)cc1Cl [AT-301, N^2-cyclopentyl-N^4-(3,4-dichlorobenzyl)quinazoline-2,4-diamine]
Growth/killing of ovarian cancer cells (ovarian cancer cells): kills; also recorded: inhibits the growth
Cell cycle alteration (RH41 cells): arrested in GO-Gi phase
Assembly of BAF complexes (BAF complex in ES3 cells): perturbed assembly
Apoptosis (caspase 3/7) [1]: induces apoptosis
Apoptosis (caspase 3/7) [2]: induces apoptosis
IC50 (ES6): 2.84 µM
IC50 (GBM2): 3.54 µM
IC50 (ES7): 4.83 µM
IC50 (RH4): 6.54 µM
IC50 (ES3): 5.21 µM
IC50 (RH30): 2.96 µM
